Measured values taken from ChEMBL document CHEMBL1201862, “PubChem BioAssay data set” (2004).
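48-hour exposure; five concentrations; linearly interpolated endpoints. GI50 marks 50% less growth.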 Activity calls are given as the source filed them. Rule as the data show it: active = GI50 up to about 1.1 µM and inactive = higher.

Columns and labels:
Assay in all cases: DTP human tumour cell line panel, 48 h
HCC 2998 = test system: HCC 2998
NCI-H522 = test system: NCI-H522
M14 = test system: M14
SF-539 = test system: SF-539
DU-145 = test system: DU-145
U-251 = test system: U-251
Malme-3M = test system: Malme-3M
OVCAR-8 = test system: OVCAR-8
SF-268 = test system: SF-268
NCI/ADR-RES = test system: NCI/ADR-RES
HL-60 = test system: HL-60
SK-MEL-2 = test system: SK-MEL-2
MDA-MB-231 = test system: MDA-MB-231
LOX IMVI = test system: LOX IMVI
COLO 205 = test system: COLO 205
OVCAR-5 = test system: OVCAR-5
T47D = test system: T47D
EKVX = test system: EKVX
SK-MEL-5 = test system: SK-MEL-5
Hs-578T = test system: Hs-578T

Measured: GI50

CC1=Nc2ccccc2OC(C)=C1/N=N/c1ccc2[nH]c(C)nc2c1
inactive: HCC 2998 > 100 µM | NCI-H522 > 100 µM | M14 > 100 µM | SF-539 > 100 µM | DU-145 > 100 µM | U-251 > 100 µM | Malme-3M > 100 µM | OVCAR-8 > 100 µM | SF-268 > 100 µM | NCI/ADR-RES > 100 µM | HL-60 > 100 µM | SK-MEL-2 > 100 µM | MDA-MB-231 > 100 µM | LOX IMVI 66.2 µM | COLO 205 > 100 µM | OVCAR-5 > 100 µM | T47D 50.9 µM | EKVX > 100 µM

CC(=O)Nc1ccccc1SCCSSCCSc1ccccc1NC(C)=O
inactive: HCC 2998 22.3 µM | NCI-H522 16.8 µM | M14 31.5 µM | SF-539 24 µM | DU-145 25.6 µM | U-251 26.5 µM | Malme-3M 34.7 µM | OVCAR-8 38.9 µM | SF-268 38.2 µM | NCI/ADR-RES 31.8 µM | HL-60 17.4 µM | SK-MEL-2 27.9 µM | MDA-MB-231 32.3 µM | LOX IMVI 20 µM | COLO 205 20.4 µM | OVCAR-5 31.5 µM | SK-MEL-5 38.5 µM | T47D 25.6 µM | EKVX 43.3 µM

Cc1ccc2[nH]c3[nH]c(=O)[nH]c(=O)c3c2c1
inactive: NCI-H522 > 100 µM | M14 > 100 µM | SF-539 > 100 µM | DU-145 > 100 µM | Malme-3M > 100 µM | OVCAR-8 > 100 µM | SF-268 > 100 µM | NCI/ADR-RES > 100 µM | HL-60 > 100 µM | SK-MEL-2 > 100 µM | LOX IMVI > 100 µM | COLO 205 > 100 µM | OVCAR-5 > 100 µM | SK-MEL-5 > 100 µM | T47D > 100 µM | Hs-578T > 100 µM | EKVX > 100 µM

CCc1c(CNC2=NCCN2)c(CC)c(CNC2=NCCN2)c(CC)c1CNC1=NCCN1
inactive: HCC 2998 > 100 µM | NCI-H522 > 100 µM | M14 > 100 µM | SF-539 > 100 µM | DU-145 > 100 µM | U-251 > 100 µM | Malme-3M > 100 µM | OVCAR-8 > 100 µM | SF-268 > 100 µM | NCI/ADR-RES > 100 µM | SK-MEL-2 > 100 µM | COLO 205 > 100 µM | OVCAR-5 > 100 µM | SK-MEL-5 > 100 µM | T47D > 100 µM | Hs-578T > 100 µM | EKVX > 100 µM

COc1cc(Nc2c(C#N)[n+]([O-])c3ccccc3[n+]2[O-])cc(OC)c1OC
inactive: HCC 2998 18.4 µM | NCI-H522 29.1 µM | M14 15 µM | SF-539 33.6 µM | DU-145 43.3 µM | U-251 38 µM | Malme-3M 35.2 µM | OVCAR-8 31.9 µM | SF-268 27.2 µM | NCI/ADR-RES 17.3 µM | HL-60 41.2 µM | SK-MEL-2 39.1 µM | LOX IMVI 26.7 µM | COLO 205 12.6 µM | OVCAR-5 22.3 µM | SK-MEL-5 19.6 µM | T47D 14.8 µM | Hs-578T > 100 µM | EKVX 29 µM

CC1(C)OP(=O)(c2ccccc2)C=C1Sc1ccc([N+](=O)[O-])cc1[N+](=O)[O-] (stereo not drawn)
inactive: NCI-H522 19 µM | M14 63.8 µM | SF-539 33.7 µM | DU-145 74.6 µM | U-251 54.7 µM | Malme-3M 78.3 µM | OVCAR-8 62.1 µM | SF-268 52.1 µM | NCI/ADR-RES 80.5 µM | HL-60 15.9 µM | SK-MEL-2 > 100 µM | LOX IMVI 36.6 µM | COLO 205 > 100 µM | OVCAR-5 > 100 µM | SK-MEL-5 42.7 µM | T47D > 100 µM | Hs-578T > 100 µM | EKVX > 100 µM
